According to US9756858B2, “Insecticides” (Syngenta Participations AG, priority 2011, dated 2017):

Assays:
Format in all cases: in vivo
Aphis craccivora = assay: Activity against Aphis craccivora (mixed population, contact/feeding), comparison with state of the art; conditions: for Death rate (%) after 5 days: pea seedlings, spray
Description: Comparison of the Insecticidal Activity of Compounds According to the Invention with the Structurally Closest Compound from the State of the Art (Compound No. 39 Described on Page 66 of WO2009/149858): Example B8: Activity Against Aphis craccivora (mixed population, contact/feeding) Pea seedlings, infested with an aphid population of mixed ages, were treated with diluted test solutions in a spray chamber. […]

[1] = test system: Plutella xylostella (diamond back moth); assay: Plutella xylostella (larvicide, feeding/residual contact, preventive); conditions: 200 ppm; artificial diet, L2 larvae, 5 days incubation
Description: Example B3: Plutella xylostella (Diamond Back Moth) (larvicide, feeding/residual contact activity, preventive) 24-well microtiter plate (MTP) with artificial diet was treated with test solutions by pipetting. After drying, the MTP's were infested with larvae (L2) (10-15 per well). After an incubation period of 5 days, samples were checked for larval mortality, antifeedant and growth regulation.

[2] = test system: Tetranychus urticae (two-spotted spider mite); assay: Activity against Tetranychus urticae (mixed population, feeding/residual contact, preventive); conditions: foliar, 192 h, bean leaf discs, 8 days
From the text: Example B7: Activity Against Tetranychus urticae (Two-Spotted Spider Mite) (mixed population, feeding/residual contact activity, preventive) Bean leaf discs on agar in 24-well microtiter plates are sprayed with test solutions. After drying, the leaf discs are infested with mite populations of mixed ages. 8 days later, discs are checked for egg mortality, larval mortality, and adult mortality.

[3] = test system: Myzus persicae (green peach aphid); assay: Activity against Myzus persicae (mixed population, feeding/residual contact, preventive); conditions: foliar, 144 h, sunflower leaf discs, 6 days incubation
Description: Example B4: Activity Against Myzus Persicae (Green Peach Aphid) (mixed population, feeding/residual contact activity, preventive) Sunflower leaf discs were placed on agar in a 24-well microtiter plate and sprayed with test solutions. After drying, the leaf discs were infested with an aphid population of mixed ages. After an incubation period of 6 days, samples were checked for mortality and special effects (e.g. phytotoxicity).

[4] = test system: Myzus persicae (green peach aphid); assay: Activity against Myzus persicae (mixed population, systemic/feeding, curative); conditions: 144 h, roots of pea seedlings in test solution, 6 days
From the text: Example B5: Activity Against Myzus persicae (Green Peach Aphid) (mixed population, systemic/feeding activity, curative) Roots of pea seedlings, infested with an aphid population of mixed ages, were placed directly in the test solutions. 6 days after introduction, samples were checked for mortality and special effects on the plant.

[5] = test system: Spodoptera littoralis (Egyptian cotton leafworm); assay: Activity against Spodoptera littoralis (larvicide, feeding/residual contact, preventive); conditions: 200 ppm; cotton leaf discs, L1 larvae, 3 days after treatment
From the text: Example B1: Activity Against Spodoptera littoralis (Egyptian Cotton Leafworm) (larvicide, feeding/residual contact activity, preventive) Cotton leaf discs were placed on agar in a 24-well microtiter plate and sprayed with test solutions. After drying, the leaf discs were infested with 5 L1 larvae. The samples were checked for mortality, repellent effect, feeding behaviour, and growth regulation 3 days after treatment.

Compound | pest or weed control at 200 ppm [3] [%] | further results
Cc1nc(-c2cccnc2)sc1C(=O)NCC(F)(F)F [Comp. 39, reference compound] |  | Death rate (%) after 5 days (Aphis craccivora; 3 ppm): 35%; Death rate (%) after 5 days (Aphis craccivora; 12.5 ppm): 85%; Death rate (%) after 5 days (Aphis craccivora; 25 ppm): 99%; Death rate (%) after 5 days (Aphis craccivora; 50 ppm): 99%
Clc1csc(C2C=CC=NC2c2sc(-c3cccnc3)nc2Cl)n1 (centres unmarked) [Compound 1.001] |  | activity [1]: over 80%; pest or weed control at 200 ppm [2]: > 80%
O=C(NCC(F)(F)F)c1sc(-c2cccnc2)nc1Cl [Compound 1.005] | > 80 | Death rate (%) after 5 days (Aphis craccivora; 3 ppm): 0%; Death rate (%) after 5 days (Aphis craccivora; 12.5 ppm): 0%; Death rate (%) after 5 days (Aphis craccivora; 25 ppm): 30%; Death rate (%) after 5 days (Aphis craccivora; 50 ppm): 90%; insecticidal action on Aphis craccivora compared with the compound from the state of the art (Aphis craccivora; comparison with Comp. 39, especially at 25, 12.5 and 3 ppm): substantially better insecticidal action
O=C(NC1CSC1)c1sc(-c2cccnc2)nc1Cl [Compound 1.007] | > 80 | pest or weed control at 24 ppm [4]: > 80%
Clc1cccc(-c2sc(-c3cccnc3)nc2Cl)n1 [Compound 1.011] | > 80 | 
CS(=O)(=O)c1ccc(CNC(=O)c2sc(-c3cccnc3)nc2Cl)cc1 [Compound 1.021] | > 80 | 
O=C(NCC1CCCO1)c1sc(-c2cccnc2)nc1Cl (centres unmarked) [Compound 1.026] | > 80 | 
O=C(NCc1ccc2c(c1)OCCO2)c1sc(-c2cccnc2)nc1Cl [Compound 1.038] | > 80 | 
CC(=O)NCCNC(=O)c1sc(-c2cccnc2)nc1Cl [Compound 1.039] | > 80 | 
O=C(Nc1cccc2ncccc12)c1sc(-c2cccnc2)nc1Cl [Compound 1.053] | > 80 | 
Cc1cc(NC(=O)c2sc(-c3cccnc3)nc2Cl)n(C)n1 [Compound 1.069] | > 80 | 
Cc1cc(O)nc(NC(=O)c2sc(-c3cccnc3)nc2Cl)n1 [Compound 1.072] | > 80 | 
O=C(Nc1ccc(Oc2ccccc2)nc1)c1sc(-c2cccnc2)nc1Cl [Compound 1.079] | > 80 | 
O=C(NC1CS(=O)(=O)C1)c1sc(-c2cccnc2)nc1Cl [Compound 1.085] | > 80 | 
CSCC(C)(C)NC(=O)c1sc(-c2cccnc2)nc1Cl [Compound 1.086] | > 80 | pest or weed control at 24 ppm [4]: > 80%
O=C(NC1CCSC1)c1sc(-c2cccnc2)nc1Cl (centres unmarked) [Compound 1.088] | > 80 | pest or weed control at 24 ppm [4]: > 80%
O=C(NC1C[S+]([O-])C1)c1sc(-c2cccnc2)nc1Cl (centres unmarked) [Compound 1.089] | > 80 | 
O=C(NC1C[S+]([O-])C1)c1sc(-c2cccnc2)nc1Cl (centres unmarked) [Compound 1.090] |  | pest or weed control at 24 ppm [4]: > 80%
CCN1OCC(NC(=O)c2sc(-c3cccnc3)nc2Cl)C1=O (centres unmarked) [Compound 1.093] |  | pest or weed control at 24 ppm [4]: > 80%
O=C(NCCC1CS(=O)(=O)C1)c1sc(-c2cccnc2)nc1Cl [Compound 1.094] | > 80 | 
O=C(NC1CON(CC(F)(F)F)C1=O)c1sc(-c2cccnc2)nc1Cl (centres unmarked) [Compound 1.095] | > 80 | pest or weed control at 24 ppm [4]: > 80%
O=C(c1sc(-c2cccnc2)nc1Cl)N1CCC[C@H]1COc1c(Cl)cc(Cl)cc1Cl [Compound 1.096] |  | pest or weed control at 200 ppm [2]: > 80%

Compound | pest or weed control at 200 ppm [3] [%] | further results
C[C@@H](NC(=O)c1sc(-c2cccnc2)nc1Cl)C(F)(F)F [Compound 1.100] | > 80 | 
O=C(NC1(C2CC2)CC1)c1sc(-c2cccnc2)nc1Cl [Compound 1.119] | > 80 | 
CON1CCC(NC(=O)c2sc(-c3cccnc3)nc2Cl)CC1 [Compound 1.120] | > 80 | pest or weed control at 24 ppm [4]: > 80%
CN(Cc1ccc(Cl)nc1)C(=O)c1sc(-c2cccnc2)nc1Cl [Compound 1.124] |  | pest or weed control at 200 ppm [2]: > 80%
COCC#CC(C)(C)NC(=O)c1sc(-c2cccnc2)nc1Cl [Compound 1.130] | > 80 | 
CC(C)(NC(=O)c1sc(-c2cccnc2)nc1Cl)C(=O)c1ccc(Cl)cc1 [Compound 1.131] |  | pest or weed control at 200 ppm [2]: > 80%
CC(C)(NC(=O)c1sc(-c2cccnc2)nc1Cl)C(=O)c1cccc(Br)c1 [Compound 1.132] |  | pest or weed control at 200 ppm [2]: > 80%
COC(=O)c1ccc(NC(=O)c2sc(-c3cccnc3)nc2Cl)nc1 [Compound 1.138] |  | pest or weed control at 200 ppm [2]: > 80%
CCCCNC(=O)c1sc(-c2cccnc2)nc1Cl [Compound 1.142] | > 80 | 
CC1(NC(=O)c2sc(-c3cccnc3)nc2Cl)CSC1 [Compound 1.143] |  | pest or weed control at 24 ppm [4]: > 80%
O=C(NC1CCC1)c1sc(-c2cccnc2)nc1Cl [Compound 1.144] | > 80 | 
C[S+]([O-])CCNC(=O)c1sc(-c2cccnc2)nc1Cl (centres unmarked) [Compound 1.145] | > 80 | pest or weed control at 24 ppm [4]: > 80%
CSCCNC(=O)c1sc(-c2cccnc2)nc1Cl [Compound 1.146] | > 80 | pest or weed control at 24 ppm [4]: > 80%
O=C(NCC1CCS1)c1sc(-c2cccnc2)nc1Cl (centres unmarked) [Compound 1.147] | > 80 | pest or weed control at 24 ppm [4]: > 80%
O=C(NCCC1CSC1)c1sc(-c2cccnc2)nc1Cl [Compound 1.148] | > 80 | pest or weed control at 24 ppm [4]: > 80%
CC(C)(C)NC(=O)c1sc(-c2cccnc2)nc1Cl [Compound 1.149] | > 80 | 
COCC(C)(C#N)NC(=O)c1sc(-c2cccnc2)nc1Cl (centres unmarked) [Compound 1.150] | > 80 | 
C#CC(C)(C)NC(=O)c1sc(-c2cccnc2)nc1Cl [Compound 1.152] | > 80 | 
CC#CC(C)(C)NC(=O)c1sc(-c2cccnc2)nc1Cl [Compound 1.153] | > 80 | 
COC(c1ccc(Cl)cc1Cl)C(C)NC(=O)c1sc(-c2cccnc2)nc1Cl (centres unmarked) [Compound 1.156] |  | activity [5]: over 80%; pest or weed control at 200 ppm [2]: > 80%
COc1cc(-c2sc(-c3cccnc3)nc2Cl)nc(OC)n1 [Compound 1.160] |  | pest or weed control at 200 ppm [2]: > 80%
